Assay results reported in article PMC11435058, “Synthesis of New Thiazole-Privileged Chalcones as Tubulin Polymerization Inhibitors with Potential Anticancer Activities” (Pharmaceuticals, 2024).

How the values were obtained:
Test in all cases: NCI-60 anticancer screen (SRB; single dose and five doses)
MDA-MB-231/ATCC = conditions: Homo sapiens
HOP-62 = conditions: Homo sapiens
PC-3 = conditions: Homo sapiens
ACHN = conditions: Homo sapiens
BT-549 = conditions: Homo sapiens
SN12C = conditions: Homo sapiens
A498 = conditions: Homo sapiens
HS 578T = conditions: Homo sapiens
SK-MEL-28 = conditions: Homo sapiens
UACC-62 = conditions: Homo sapiens
SF-295 = conditions: Homo sapiens
DU-145 = conditions: Homo sapiens
SF-268 = conditions: Homo sapiens
NCI-H322M = conditions: Homo sapiens
SR = conditions: Homo sapiens
SNB-75 = test system: SNB-75
SF-539 = conditions: Homo sapiens
NCI-H460 = conditions: Homo sapiens
SW-620 = conditions: Homo sapiens
EKVX = conditions: Homo sapiens
HOP-92 = conditions: Homo sapiens
CAKI-1 = conditions: Homo sapiens
M14 = conditions: Homo sapiens
MDA-MB-468 = assay type: cell-based, human
Outline: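 Readout was sulforhodamine B staining, read spectrophotometrically as percent growth against untreated controls. This followed a 48 h exposure to one 10μM dose across roughly 60 human tumor lines of the NCI screen.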

RPMI-8226 = conditions: Homo sapiens
[1] = 48 h, read-out: Growth Percentage

## Cc1[nH]c(=S)sc1C(=O)/C=C/c1cccc([N+](=O)[O-])c1 [2h, (E)-1-(4-Methyl-2-Thioxo-2,3-Dihydrothiazol-5-yl)-3-(3-Nitrophenyl)Prop-2-En-1-One]
MDA-MB-231/ATCC; MDA-MB-231
  GI50: 5.25 µM
  IC50: 16.2 µM
MDA-MB-231/ATCC; MDA-MB-231, 48 h, read-out: Growth Percentage
  activity at 10 µM: -17.6%
MDA-MB-231/ATCC; MDA-MB-231, read-out: LC50
  CC50: 44.7 µM
MDA-MB-231/ATCC; MDA-MB-231, read-out: TGI
  IC (TGI): 17.8 µM
HOP-62; HOP-62
  GI50: 3.98 µM
  IC50: 6.76 µM
HOP-62; HOP-62, 48 h, read-out: Growth Percentage
  activity at 10 µM: 0.68%
HOP-62; HOP-62, read-out: LC50
  CC50: 40.7 µM
HOP-62; HOP-62, read-out: TGI
  IC (TGI): 12.3 µM
PC-3; PC-3
  GI50: 4.07 µM
  IC50: 8.13 µM
PC-3; PC-3, 48 h, read-out: Growth Percentage
  activity at 10 µM: 8.43%
PC-3; PC-3, read-out: LC50
  CC50: 56.2 µM
PC-3; PC-3, read-out: TGI
  IC (TGI): 17.8 µM
ACHN
  GI50: 4.07 µM
  IC50: 6.17 µM
ACHN; [1]
  activity at 10 µM: -58.4%
ACHN; read-out: LC50
  CC50: 38.9 µM
ACHN; read-out: TGI
  IC (TGI): 14.8 µM
BT-549; BT-549
  GI50: 3.8 µM
  IC50: 13.5 µM
BT-549; BT-549, 48 h, read-out: Growth Percentage
  activity at 10 µM: -14%
BT-549; BT-549, read-out: LC50
  CC50: 43.6 µM
BT-549; BT-549, read-out: TGI
  IC (TGI): 14.8 µM
SN12C
  GI50: 2.69 µM
  IC50: 4.37 µM
SN12C; [1]
  activity at 10 µM: -25.6%
SN12C; read-out: LC50
  CC50: 33.1 µM
SN12C; read-out: TGI
  IC (TGI): 10.2 µM
A498; A498
  GI50: 14.8 µM
  IC50: 29.5 µM
A498; A498, read-out: LC50
  CC50: 55 µM
A498; A498, read-out: TGI
  IC (TGI): 28.2 µM
HS 578T
  GI50: 17.4 µM
  IC50: 67.6 µM
HS 578T; [1]
  activity at 10 µM: 24.5%
HS 578T; read-out: LC50
  CC50: > 100 µM
HS 578T; read-out: TGI
  IC (TGI): 52.5 µM
SK-MEL-28; SK-MEL-28
  GI50: 5.5 µM
  IC50: 13.2 µM
SK-MEL-28; SK-MEL-28, 48 h, read-out: Growth Percentage
  activity at 10 µM: -47%
SK-MEL-28; SK-MEL-28, read-out: LC50
  CC50: 44.7 µM
SK-MEL-28; SK-MEL-28, read-out: TGI
  IC (TGI): 18.2 µM
UACC-62; UACC-62
  GI50: 3.55 µM
  IC50: 7.94 µM
UACC-62; UACC-62, 48 h, read-out: Growth Percentage
  activity at 10 µM: -56.7%
UACC-62; UACC-62, read-out: LC50
  CC50: 41.7 µM
UACC-62; UACC-62, read-out: TGI
  IC (TGI): 15.8 µM
SF-295; SF-295
  GI50: 3.63 µM
  IC50: 8.71 µM
SF-295; SF-295, 48 h, read-out: Growth Percentage
  activity at 10 µM: 4.14%
SF-295; SF-295, read-out: LC50
  CC50: 39.8 µM
SF-295; SF-295, read-out: TGI
  IC (TGI): 14.8 µM
DU-145; DU-145
  GI50: 2.4 µM
  IC50: 3.89 µM
DU-145; DU-145, 48 h, read-out: Growth Percentage
  activity at 10 µM: 8.55%
DU-145; DU-145, read-out: LC50
  CC50: 23.4 µM
DU-145; DU-145, read-out: TGI
  IC (TGI): 6.17 µM
SF-268; SF-268
  GI50: 10.5 µM
  IC50: 19.1 µM
SF-268; SF-268, 48 h, read-out: Growth Percentage
  activity at 10 µM: 27.5%
SF-268; SF-268, read-out: LC50
  CC50: 57.5 µM
SF-268; SF-268, read-out: TGI
  IC (TGI): 24.6 µM
NCI-H322M
  GI50: 8.71 µM
  IC50: 17.4 µM
NCI-H322M; [1]
  activity at 10 µM: 28.9%
NCI-H322M; read-out: LC50
  CC50: 50.1 µM
NCI-H322M; read-out: TGI
  IC (TGI): 21.9 µM
SR
  GI50: 2.75 µM
  IC50: 3.89 µM
SR; [1]
  activity at 10 µM: -11%
SR; read-out: LC50
  CC50: > 100 µM
SR; read-out: TGI
  IC (TGI): > 100 µM
SNB-75; Homo sapiens, SNB-75
  GI50: 2.29 µM
  IC50: 8.51 µM
SNB-75; Homo sapiens, SNB-75, read-out: LC50
  CC50: 27.5 µM
SNB-75; five-dose, CNS Cancer SNB-75
  TGI: 7.41 µM
SF-539; SF-539
  GI50: 2.19 µM
  IC50: 3.98 µM
SF-539; SF-539, 48 h, read-out: Growth Percentage
  activity at 10 µM: -85.9%
SF-539; SF-539, read-out: LC50
  CC50: 12.9 µM
SF-539; SF-539, read-out: TGI
  IC (TGI): 4.9 µM
NCI-H460; NCI-H460
  GI50: 3.63 µM
  IC50: 4.27 µM
NCI-H460; NCI-H460, 48 h, read-out: Growth Percentage
  activity at 10 µM: -30.7%
NCI-H460; NCI-H460, read-out: LC50
  CC50: 55 µM
NCI-H460; NCI-H460, read-out: TGI
  IC (TGI): 13.8 µM
SW-620; SW-620
  GI50: 3.39 µM
  IC50: 4.07 µM
SW-620; SW-620, 48 h, read-out: Growth Percentage
  activity at 10 µM: -37.8%
SW-620; SW-620, read-out: LC50
  CC50: 45.7 µM
SW-620; SW-620, read-out: TGI
  IC (TGI): 11 µM
EKVX
  GI50: 5.75 µM
  IC50: 15.1 µM
EKVX; [1]
  activity at 10 µM: 0.65%
EKVX; read-out: LC50
  CC50: 46.8 µM
EKVX; read-out: TGI
  IC (TGI): 19.5 µM
HOP-92; HOP-92
  GI50: 3.89 µM
  IC50: 22.4 µM
HOP-92; HOP-92, read-out: LC50
  CC50: 44.7 µM
HOP-92; HOP-92, read-out: TGI
  IC (TGI): 16.6 µM
CAKI-1; CAKI-1
  GI50: 10.5 µM
  IC50: 20.4 µM
CAKI-1; CAKI-1, 48 h, read-out: Growth Percentage
  activity at 10 µM: -56.5%
CAKI-1; CAKI-1, read-out: LC50
  CC50: 51.3 µM
CAKI-1; CAKI-1, read-out: TGI
  IC (TGI): 22.9 µM
M14; M14
  GI50: 7.08 µM
  IC50: 11.8 µM
M14; M14, 48 h, read-out: Growth Percentage
  activity at 10 µM: 1.86%
M14; M14, read-out: LC50
  CC50: 83.2 µM
M14; M14, read-out: TGI
  IC (TGI): 25.7 µM
MDA-MB-468; Homo sapiens, 48 h, MDA-MB-468, dose of 10 μM, read-out: Growth Percentage
  activity at 10 µM: -82.9%
MDA-MB-468; Homo sapiens, MDA-MB-468, MDA-MB-468, Breast Cancer, five dose
  IC50: 7.76 µM
MDA-MB-468; Homo sapiens, MDA-MB-468, Breast Cancer, five dose
  GI50: 2.95 µM
MDA-MB-468; Homo sapiens, MDA-MB-468, Breast Cancer, five dose, read-out: LC50 (the source's name)
  CC50: 40.7 µM
MDA-MB-468; MDA-MB-468, Breast Cancer, five dose
  TGI: 10.72 µM
RPMI-8226; RPMI-8226
  GI50: 2.04 µM
RPMI-8226; RPMI-8226, 48 h, read-out: Growth Percentage
  activity at 10 µM: 9.39%
RPMI-8226; RPMI-8226, five-dose, Leukemia RPMI-8226
  IC50: 3.72 µM
RPMI-8226; RPMI-8226, read-out: LC50
  CC50: > 100 µM
RPMI-8226; RPMI-8226, read-out: TGI
  IC (TGI): 6.31 µM
